Bridge positions count the residues as written; N and C are the ends. Peptide text beside a SMILES is read from it.
Target: hSK2A^+ (Homo sapiens, UniProt Q9H2S1, DUP58-58)
Experiment: Membrane potential sensitive dye fluorescence assay (FLIPR384) in tsA201 cells stably expressing SK2
Assay type: cell-based
Conditions: for effect on the fluorescence signals (responses to ATP/Tg and Cs+): 10 minutes incubation; for Hill coefficient (nH): inhibition of ATP/Tg induced decrease in fluorescence, FIG. 9
Protocol: These cells were plated in a black optical bottom 384 well assay plate at a density of 8×10^6 cells/plate. […] After a 30-minute incubation in the voltage sensitive dye, the cell plate was transferred to a fluorescence plate reader (FLIPR384™, Molecular Devices), and ten baseline fluorescence readings were obtained.
Intracellular Ca^2+ levels of the cells were raised by addition of ATP (200 μM final concentration) and thapsigargin (1 μM final concentration). […] In FIG. 8, time is represented in seconds on the X-axis, and fluorescence is represented in au on the Y-axis. ATP/Tg addition is indicated at time 1, and CsCl addition is indicated at time II.
The magnitude of the ATP/Tg induced decrease in fluorescence was measured in the presence of each of a panel of known SK2 inhibitors. […]

Chain of hSK2A^+ (Q9H2S1 with tags, fused parts or gaps DUP58-58): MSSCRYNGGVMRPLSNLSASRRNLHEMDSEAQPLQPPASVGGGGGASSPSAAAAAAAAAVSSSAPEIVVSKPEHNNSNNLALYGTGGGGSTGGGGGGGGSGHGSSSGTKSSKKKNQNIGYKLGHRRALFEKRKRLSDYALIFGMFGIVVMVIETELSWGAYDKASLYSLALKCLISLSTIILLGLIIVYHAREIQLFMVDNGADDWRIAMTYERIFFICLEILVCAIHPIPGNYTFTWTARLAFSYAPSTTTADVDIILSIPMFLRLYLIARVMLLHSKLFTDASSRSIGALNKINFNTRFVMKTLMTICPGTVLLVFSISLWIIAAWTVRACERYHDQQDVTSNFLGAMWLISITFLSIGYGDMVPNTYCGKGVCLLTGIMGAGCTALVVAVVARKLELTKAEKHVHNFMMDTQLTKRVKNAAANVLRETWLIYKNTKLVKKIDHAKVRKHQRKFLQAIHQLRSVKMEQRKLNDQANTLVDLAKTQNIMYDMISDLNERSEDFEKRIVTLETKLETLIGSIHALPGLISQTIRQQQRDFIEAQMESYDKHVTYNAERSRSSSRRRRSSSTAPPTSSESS

Row | Compound | effect on the fluorescence signals (responses to ATP/Tg and Cs+) (tested at 833 nM) | Hill coefficient (nH) | also measured
1 | CC(N/C(=N\C#N)Nc1ccncc1)C(C)(C)C (centres unmarked) [pinacidil] |  |  | effect on the fluorescence signals (responses to ATP/Tg and Cs+) (tested at 286 μM): no effect
2 | α-dendrotoxin (QPRRKLCILHRNPGRCYDKIPAFYYNQKKKQCERFDWSGCGGNSNRFKTIEECRRTCIG) | no effect |  | 
3 | iberiotoxin (QFTDVDCSVSKECWSVCKDLFGVDRGKCMGKKCRCYQ) [toxin isolated from Mesobuthus tamulus] | no effect |  | 
4 | noxiustoxin (TIINVKCTSPKQCSKPCKELYGSSAGAKCMNGKCKCYNN) | no effect |  | 
5 | C=C[C@H]1C[N@@]2CC[C@H]1C[C@@H]2[C@@H](O)c1ccnc2ccc(OC)cc12 [quinidine] |  | 0.6 | 
6 | CC[C@H](C)[C@@H]1NC(=O)[C@@H]2CSSC[C@H](NC(=O)[C@H](Cc3ccccc3)NC(=O)[C@H](C)N)C(=O)N[C@@H](CC(N)=O)C(=O)N[C@@H](CC(C)C)C(=O)N[C@@H](CCCNC(=N)N)C(=O)N[C@@H](CCSC)C(=O)N[C@H]3CSSC[C@H](NC(=O)[C@H](CCCCN)NC(=O)[C@H](CC(=O)O)NC(=O)CNC1=O)C(=O)N[C@@H](CCC(=O)O)C(=O)N[C@H](C(=O)N[C@H](C(=O)N[C@@H](CCCCN)C(=O)N[C@@H](Cc1c[nH]cn1)C(N)=O)C(C)C)CSSC[C@H](NC(=O)[C@H](CO)NC(=O)[C@H](CC(C)C)NC(=O)[C@H](CCC(N)=O)NC3=O)C(=O)N[C@@H](CCCNC(=N)N)C(=O)N[C@@H](CO)C(=O)N[C@@H](CC(C)C)C(=O)NCC(=O)N[C@@H](CC(C)C)C(=O)N[C@@H](CC(C)C)C(=O)NCC(=O)N[C@@H](CCCCN)C(=O)N2 [scyllatoxin] (H-AFCNLRMCQLSCRSLGLLGKCIGDKCECVKH-NH2; disulfide 3-21, 8-26, 12-28) |  |  | IC50: 1.1 nM
7 | C[N+]1(C)CCc2cc3c(cc2[C@H]1[C@@H]1OC(=O)c2c1ccc1c2OCO1)OCO3.[Br-] [bicuculline methobromide] |  | 1 | 
8 | O=c1[nH]c2cc(C(F)(F)F)ccc2n1-c1cc(C(F)(F)F)ccc1O [NS1619] |  | 2 | 
